The record followed here is patent US4257941A, “Polycyclic nitrogen-containing compounds” (BASF Aktiengesellschaft, priority 1976, dated 1981).

Each structure is given as a SMILES string. Like-named read-outs stand apart in the source and are kept apart here.

Common to all, as to assay type: in vivo
One assay concerns Avena sativa. Nature of the assay: Growth height of Gramineae (Example 11, Table B). The settings on record: 3.0 kg/ha, 0 = no inhibition, 100 = no growth; for inhibition at 3000 g/ha: Avena sativa, read-out: growth inhibition compared with untreated control. From the text:
(§1) The vessels used for the experiments were plastic pots having a volume of 1,130 cm^3 (Table A) or paraffined paper cups having a volume of 170 cm^3 (Table B). The pots and cups were filled with a sandy loam. The seeds of the test plants-separated by species-were sown shallow. Preemergence treatment (soil treatment) was effected immediately after sowing and before germination of the seeds. Seeds lying on the surface came into contact with the active ingredients. Postemergence treatment (leaf treatment) took place at an average growth height of the plants (depending on the rate of growth) of from 6 to 10 cm. The substances were suspended, emulsified or dissolved in water as diluent and applied by means of fine nozzles. The vessels were kept in the greenhouse in a temperature range of 12° C. to 25° C., and were regularly sprinkler irrigated for the duration of the experiment. The observation period was 6 to 8 weeks.

The next assay relates to Hordeum vulgare. Nature of the assay: Growth height of Gramineae (Example 11, Table B). The settings on record: 3.0 kg/ha, 0 = no inhibition, 100 = no growth; for inhibition at 3000 g/ha: Hordeum vulgare, read-out: growth inhibition compared with untreated control.
Text: as §1

A further assay has as its system Lolium multifl. The assay is described as follows: Growth height of Gramineae (Example 11, Table B). The conditions noted are these: 3.0 kg/ha, 0 = no inhibition, 100 = no growth; for inhibition at 3000 g/ha: Lolium, read-out: growth inhibition compared with untreated control.
Text: as §1

For another assay, the system named is Ipomoea spp. Nature of the assay: Herbicidal action (Example 25). The settings on record: preemergence. Here is the method:
(§2) Paraffined paper cups having a volume of 170 cm^3 were filled with a sandy loam, and the seeds of the test plants sown therein, separated by species. (The species are also listed below.)
(§3) In the first group, treatment was effected immediately after sowing and before germination of the seeds (preemergence treatment=soil treatment). Shallow sown seeds not completely covered with soil came into contact with the active ingredients. In the second group, the plants were treated postemergence (=leaf treatment) at a growth height of from 2 to 8 cm, depending on the rate of growth and shape of the species concerned. The compounds were suspended or emulsified in water and applied with the aid of fine nozzles. The soil and plants were thoroughly sprinkler irrigated for the duration of the experiment. The cups were placed in the greenhouse and kept in the temperature range 12°-25° C. or 18°-35° C., depending on the temperature requirements of the various species. After 2 to 6 weeks the action was assessed visually on a 0 to 100 scale, 0 denoting no damage and 100 denoting plants not germinated or completely destroyed.

The next assay relates to Cyperus esculentus. The assay is described as follows: Herbicidal action (Example 25). The settings on record: preemergence. On the procedure:
as §2, §3

The test system of another assay is Cynodon dactylon. The assay is described as follows: Herbicidal action (Example 25). The conditions noted are these: preemergence. On the procedure:
as §2, §3

In a further assay the test system is Alopecurus myosuroides. The assay is described as follows: Herbicidal action (Example 25). The settings on record: for pest or weed control at 2000 g/ha / pest or weed control at 4000 g/ha / pest or weed control at 8000 g/ha: Alopecurus myosuroides, read-out: percentage damage; for pest or weed control at 2000 g/ha: 2.0 kg/ha; for pest or weed control at 8000 g/ha: 8.0 kg/ha. Here is the method:
as §2, §3

The test system of a further assay is Sorghum halepense. The assay is described as follows: Herbicidal action (Example 25). The settings on record: preemergence. Here is the method: as §2, §3
The subject of a further assay is Sinapis alba. The assay is described as follows: Herbicidal action (Example 25). The conditions noted are these: pre-emergence, preemergence, read-out: percentage damage; for pest or weed control at 2000 g/ha: 2.0 kg/ha. On the procedure: as §2, §3
In the next assay the test system is Setaria faberii. Nature of the assay: Herbicidal action (Example 25). The settings on record: preemergence. Here is the method: as §2, §3
A further assay deals with Poa annua. Nature of the assay: Herbicidal action (Example 25). The conditions noted are these: Poa annua, pre-emergence, preemergence, 2.0 kg/ha; read-out: percentage damage. On the procedure: as §2, §3
A further assay concerns Datura stramonium. The assay is described as follows: Herbicidal action (Example 25). The conditions noted are these: postemergence. Here is the method: as §2, §3
Another assay relates to Digitaria sanguinalis. The assay is described as follows: Herbicidal action (Example 25). The settings on record: postemergence. Here is the method:
as §2, §3

A further assay deals with Eleusine indica. The assay is described as follows: Herbicidal action (Example 25). The settings on record: postemergence. Here is the method:
as §2, §3

The mark [1] stands for this setting: pre-emergence, preemergence, 4.0 kg/ha.
[2] abbreviates: post-emergence, postemergence, 4.0 kg/ha.

Regarding `Clc1ccc(N2N=NC3C4CC(C5N=NC45)C32)cc1Cl` (stereo not shown), the “growth inhibition compared with untreated control” value came out at 40% in the assay with Avena sativa (leaf treatment); 30% with Avena sativa (soil treatment); 30% in the assay with Hordeum vulgare (leaf treatment); 40% in the assay with Hordeum vulgare (soil treatment); 25% in the assay on Lolium multifl. (leaf treatment); 30% with Lolium multifl. (soil treatment).
As for `c1ccc(-n2nccc2N2N=NC3C4CC(C5N=NC45)C32)cc1` (stereo not shown), the “growth inhibition compared with untreated control” value came out at 20% in the assay with Avena sativa (leaf treatment); 60% in the assay on Avena sativa (soil treatment); 20% with Hordeum vulgare (leaf treatment); 35% with Hordeum vulgare (soil treatment); 0% with Lolium multifl. (leaf treatment).
`Brc1ccc(N2N=NC3C4CC(C5NNC45)C32)cc1` (stereo not shown): the inhibition (in general, the percentage by which the read-out fell short of the control) at 3000 g/ha is 60% in the assay on Avena sativa (leaf treatment); 60% in the assay on Avena sativa (soil treatment); 50% in the assay with Hordeum vulgare (leaf treatment); 60% in the assay on Hordeum vulgare (soil treatment); 50% with Lolium multifl. (leaf treatment); 50% with Lolium multifl. (soil treatment).
Consider `Brc1ccc(N2C3C4CC(C5N=NC45)C32)cc1` (stereo not shown), for which the inhibition at 3000 g/ha was determined as 50% with Avena sativa (leaf treatment); 40% in the assay on Avena sativa (soil treatment); 50% in the assay with Hordeum vulgare (leaf treatment); 60% with Hordeum vulgare (soil treatment); 50% in the assay with Lolium multifl. (leaf treatment); 50% with Lolium multifl. (soil treatment).
On to `C[N+](C)(C)CCCl` [drawing 370], for which the inhibition at 3000 g/ha in the assay with Avena sativa (leaf treatment) came to 45%; in the assay with Avena sativa (soil treatment), 25%; with Hordeum vulgare (leaf treatment) it was 10%; with Hordeum vulgare (soil treatment), 10%; with Lolium multifl. (leaf treatment), 20%; with Lolium multifl. (soil treatment) it was 5%.
For the compound `c1ccc(CN2N=NC3C4CC(C5N=NC45)C32)cc1` (stereo not shown) [drawing 412], the percentage damage in the assay on Ipomoea spp. (2.0 kg/ha) is 0 percentage damage; in the assay with Ipomoea spp. (4.0 kg/ha), 10 percentage damage; in the assay with Cyperus esculentus (2.0 kg/ha), 55 percentage damage; in the assay with Cyperus esculentus (4.0 kg/ha) it was 55 percentage damage; with Cynodon dactylon (2.0 kg/ha) it was 80 percentage damage; in the assay on Cynodon dactylon (4.0 kg/ha) it was 100 percentage damage. Besides, the pest or weed control at 2000 g/ha in the assay on Alopecurus myosuroides (pre-emergence, preemergence) was found to be 55%. For the same compound, the pest or weed control at 4000 g/ha in the assay on Alopecurus myosuroides (setting [1]) is 70%.
In the case of `c1ccc(CN2N=NC3C4CC(C5N=NC45)C32)cc1` (stereo not shown) [drawing 417], the percentage damage in the assay with Sorghum halepense (2.0 kg/ha) came out at 90 percentage damage; with Sorghum halepense (4.0 kg/ha) it was 90 percentage damage; in the assay with Setaria faberii (2.0 kg/ha) it was 80 percentage damage; in the assay with Setaria faberii (4.0 kg/ha) it was 90 percentage damage. Also, the pest or weed control at 2000 g/ha in the assay with Sinapis alba was 80%. Also, the pest or weed control at 4000 g/ha in the assay on Sinapis alba (4.0 kg/ha) is 95%.
Turning to `O=S(=O)(c1ccccc1)N1C2C3CC(C4N=NC34)C21` (stereo not shown) [drawing 419], the percentage damage with Sorghum halepense (2.0 kg/ha) is reported as 53 percentage damage; with Sorghum halepense (4.0 kg/ha), 50 percentage damage; with Setaria faberii (2.0 kg/ha), 40 percentage damage; with Setaria faberii (4.0 kg/ha), 100 percentage damage. In addition, the pest or weed control at 2000 g/ha stood at 90% with Sinapis alba and 70% with Poa annua.
For `CC(C)OC(=O)Nc1cccc(Cl)c1` [drawing 423], the percentage damage in the assay with Datura stramonium (2.0 kg/ha) came out at 30 percentage damage; in the assay with Datura stramonium (4.0 kg/ha), 40 percentage damage; in the assay on Datura stramonium (8.0 kg/ha), 60 percentage damage; in the assay on Digitaria sanguinalis (2.0 kg/ha), 80 percentage damage; in the assay on Digitaria sanguinalis (4.0 kg/ha), 80 percentage damage; in the assay on Digitaria sanguinalis (8.0 kg/ha), 90 percentage damage. The percentage damage in the assay with Eleusine indica (2.0 kg/ha), in the assay on Eleusine indica (4.0 kg/ha) and with Eleusine indica (8.0 kg/ha) was 50 percentage damage throughout. For the same compound, the pest or weed control at 2000 g/ha in the assay with Alopecurus myosuroides (post-emergence, postemergence) came to 25%; with Alopecurus myosuroides (pre-emergence, preemergence) it was 95%. Further, the pest or weed control at 4000 g/ha with Alopecurus myosuroides (setting [2]) is 25%; in the assay with Alopecurus myosuroides (setting [1]), 95%. Further, the pest or weed control at 8000 g/ha turned out to be 30% with Alopecurus myosuroides (post-emergence, postemergence) and 98% in the assay with Alopecurus myosuroides (pre-emergence, preemergence).
As for `CN(C)C(=O)Nc1ccc(Oc2ccccc2)cc1` [drawing 424], the percentage damage amounted to 95 percentage damage in the assay on Datura stramonium (2.0 kg/ha); 95 percentage damage in the assay on Datura stramonium (4.0 kg/ha); 100 percentage damage with Datura stramonium (8.0 kg/ha); 50 percentage damage with Digitaria sanguinalis (2.0 kg/ha); 70 percentage damage with Digitaria sanguinalis (4.0 kg/ha); 90 percentage damage in the assay with Digitaria sanguinalis (8.0 kg/ha). Besides, the percentage damage turned out to be 40 percentage damage in the assay with Eleusine indica (2.0 kg/ha), 50 percentage damage in the assay with Eleusine indica (4.0 kg/ha) and 50 percentage damage in the assay on Eleusine indica (8.0 kg/ha). Also, the pest or weed control at 2000 g/ha in the assay with Alopecurus myosuroides (post-emergence, postemergence) is 15%; with Alopecurus myosuroides (pre-emergence, preemergence) it was 30%. The pest or weed control at 4000 g/ha amounted to 22% with Alopecurus myosuroides (setting [2]) and 25% with Alopecurus myosuroides (setting [1]). Besides, the pest or weed control at 8000 g/ha in the assay on Alopecurus myosuroides (post-emergence, postemergence) worked out at 38%; with Alopecurus myosuroides (pre-emergence, preemergence), 25%.
As to `c1ccc(N2N=NC3C4CC(C5N=NC45)C32)cc1` (stereo not shown) [drawing 429], the percentage damage with Datura stramonium (2.0 kg/ha) was 60 percentage damage; with Datura stramonium (4.0 kg/ha), 95 percentage damage; in the assay with Datura stramonium (8.0 kg/ha), 100 percentage damage; in the assay on Digitaria sanguinalis (2.0 kg/ha), 60 percentage damage; with Digitaria sanguinalis (4.0 kg/ha), 70 percentage damage; in the assay on Digitaria sanguinalis (8.0 kg/ha) it was 80 percentage damage. Besides, the percentage damage was determined as 75 percentage damage in the assay with Alopecurus myosuroides (preemergence, 4.0 kg/ha); 90 percentage damage in the assay on Eleusine indica (2.0 kg/ha); 90 percentage damage in the assay on Eleusine indica (4.0 kg/ha); 90 percentage damage in the assay with Eleusine indica (8.0 kg/ha). In addition, the pest or weed control at 2000 g/ha in the assay on Alopecurus myosuroides (post-emergence, postemergence) worked out at 15%; in the assay with Alopecurus myosuroides (pre-emergence, preemergence), 70%. In addition, the pest or weed control at 4000 g/ha in the assay on Alopecurus myosuroides (setting [2]) came out at 38%. Besides, the pest or weed control at 8000 g/ha stood at 45% with Alopecurus myosuroides (post-emergence, postemergence) and 90% in the assay with Alopecurus myosuroides (pre-emergence, preemergence).
For the compound `c1csc(N2N=NC3C4CC(C5N=NC45)C32)n1` (stereo not shown) [drawing 430], the percentage damage with Datura stramonium (2.0 kg/ha) is given as 50 percentage damage; in the assay on Datura stramonium (4.0 kg/ha), 60 percentage damage; in the assay on Datura stramonium (8.0 kg/ha), 65 percentage damage; in the assay on Digitaria sanguinalis (2.0 kg/ha) it was 60 percentage damage; with Digitaria sanguinalis (4.0 kg/ha), 60 percentage damage; in the assay with Digitaria sanguinalis (8.0 kg/ha), 80 percentage damage. In addition, the percentage damage in the assay with Eleusine indica (2.0 kg/ha) came to 60 percentage damage; in the assay with Eleusine indica (4.0 kg/ha) it was 60 percentage damage; in the assay with Eleusine indica (8.0 kg/ha), 70 percentage damage. Further, the pest or weed control at 2000 g/ha in the assay on Alopecurus myosuroides (post-emergence, postemergence) was 32%; with Alopecurus myosuroides (pre-emergence, preemergence), 70%. In addition, the pest or weed control at 4000 g/ha in the assay on Alopecurus myosuroides (setting [2]) was found to be 40%; in the assay with Alopecurus myosuroides (setting [1]) it was 88%. The pest or weed control at 8000 g/ha in the assay with Alopecurus myosuroides (post-emergence, postemergence) stood at 50%; in the assay on Alopecurus myosuroides (pre-emergence, preemergence) it was 100%.
